# Legend:
# Assay in all cases: Test B preemergence/postemergence greenhouse plant response rating 0 to 10
# cotton = format: in vivo, Gossypium hirsutum; conditions: for Plant response rating, Cotton: 0 to 10 scale
# Method in brief: (§1)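 Planted seeds are treated preemergence with compound dissolved in a non-phytotoxic solvent, while postemergence applications go onto plants of two to eighteen cm. Plants stay in the greenhouse twelve to sixteen days and are then rated visually relative to controls.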
# corn = format: in vivo, Zea mays; conditions: for Plant response rating, Corn: 0 to 10 scale
# Method in brief: as §1
# barley = format: in vivo, Hordeum vulgare; conditions: for Plant response rating, Barley: 0 to 10 scale
# Method in brief: as §1
# morningglory = format: in vivo, Ipomoea hederacea; conditions: for Plant response rating, Morningglory: 0 to 10 scale
# Method in brief: as §1
# velvetleaf = format: in vivo, Abutilon theophrasti; conditions: for Plant response rating, Velvetleaf: 0 to 10 scale
# Method in brief: as §1
# cheatgrass = format: in vivo, Bromus secalinus; conditions: for Plant response rating, Cheatgrass: 0 to 10 scale
# Method in brief: as §1
# barnyardgrass = format: in vivo, Echinochloa crus-galli; conditions: for Plant response rating, Barnyardgrass: 0 to 10 scale
# Method in brief: as §1
# wild oat = format: in vivo, Avena fatua; conditions: for Plant response rating, Wild oat: 0 to 10 scale
# Method in brief: as §1
# sugar beet = format: in vivo, Beta vulgaris; conditions: for Plant response rating, Sugar beet: 0 to 10 scale
# Method in brief: as §1
# giant foxtail = format: in vivo, Setaria faberii; conditions: for Plant response rating, Giant foxtail: 0 to 10 scale
# Method in brief: as §1
# rice = format: in vivo, Oryza sativa; conditions: for Plant response rating, Rice: 0 to 10 scale
# Method in brief: as §1
# sorghum = format: in vivo, Sorghum bicolor; conditions: for Plant response rating, Sorghum: 0 to 10 scale
# Method in brief: as §1
# wheat = format: in vivo, Triticum aestivum; conditions: for Plant response rating, Wheat: 0 to 10 scale
# Method in brief: as §1
# wild buckwheat = format: in vivo, Polygonum convolvulus; conditions: for Plant response rating, Wild buckwheat: 0 to 10 scale
# Method in brief: as §1
# chickweed = format: in vivo, Stellaria media; conditions: for Plant response rating, Chickweed: 0 to 10 scale
# Method in brief: as §1
# soybean = format: in vivo, Glycine max; conditions: for Plant response rating, Soybean: 0 to 10 scale
# Method in brief: as §1
# purple nutsedge = format: in vivo, Cyperus rotundus; conditions: for Plant response rating, Nutsedge: 0 to 10 scale
# Method in brief: as §1
# crabgrass = format: in vivo, Digitaria spp.; conditions: for Plant response rating, Crabgrass: 0 to 10 scale
# Method in brief: as §1
# rape = format: in vivo, Brassica napus; conditions: for Plant response rating, Rape: 0 to 10 scale
# Method in brief: as §1
# bedstraw = format: in vivo, Galium aparine; conditions: for Plant response rating, Bedstraw: 0 to 10 scale
# Method in brief: as §1
# cocklebur = format: in vivo, Xanthium pensylvanicum; conditions: for Plant response rating, Cocklebur: 0 to 10 scale
# Method in brief: as §1
# lambsquarters = format: in vivo, Chenopodium album; conditions: for Plant response rating, Lambsquarter: 0 to 10 scale
# Method in brief: as §1
# blackgrass = format: in vivo, Alopecurus myosuroides; conditions: for Plant response rating, Blackgrass: 0 to 10 scale
# Method in brief: as §1
smiles,measurement,setting,value
Oc1cc(-c2nn3c(c2Br)CCCC3)c(F)cc1Cl [Compound 81],"Plant response rating, Cotton","cotton; POSTEMERGENCE, Rate 50 g/ha",10
same,"Plant response rating, Cotton","cotton; PREEMERGENCE, Rate 50 g/ha",0
same,"Plant response rating (0 to 10 scale), Cotton","cotton; PREEMERGENCE, Rate 200 g/ha",0
same,"Plant response rating, Cotton","cotton; Rate 200 g/ha, POSTEMERGENCE",10
same,"Plant response rating, Corn","corn; POSTEMERGENCE, Rate 50 g/ha",2
same,"Plant response rating, Corn","corn; PREEMERGENCE, Rate 50 g/ha",0
same,"Plant response rating (0 to 10 scale), Corn","corn; PREEMERGENCE, Rate 200 g/ha",0
same,"Plant response rating, Corn","corn; Rate 200 g/ha, POSTEMERGENCE",3
same,"Plant response rating, Barley","barley; POSTEMERGENCE, Rate 50 g/ha",3
same,"Plant response rating, Barley","barley; PREEMERGENCE, Rate 50 g/ha",0
same,"Plant response rating (0 to 10 scale), Barley","barley; PREEMERGENCE, Rate 200 g/ha",0
same,"Plant response rating, Barley","barley; Rate 200 g/ha, POSTEMERGENCE",3
same,"Plant response rating, Morningglory","morningglory; POSTEMERGENCE, Rate 50 g/ha",9
same,"Plant response rating, Morningglory","morningglory; PREEMERGENCE, Rate 50 g/ha",0
same,"Plant response rating (0 to 10 scale), Morningglory","morningglory; PREEMERGENCE, Rate 200 g/ha",0
same,"Plant response rating, Morningglory","morningglory; Rate 200 g/ha, POSTEMERGENCE",10
same,"Plant response rating, Velvetleaf","velvetleaf; POSTEMERGENCE, Rate 50 g/ha",9
same,"Plant response rating, Velvetleaf","velvetleaf; PREEMERGENCE, Rate 50 g/ha",3
same,"Plant response rating (0 to 10 scale), Velvetleaf","velvetleaf; PREEMERGENCE, Rate 200 g/ha",10
same,"Plant response rating, Velvetleaf","velvetleaf; Rate 200 g/ha, POSTEMERGENCE",10
same,"Plant response rating, Cheatgrass","cheatgrass; POSTEMERGENCE, Rate 50 g/ha",3
same,"Plant response rating, Cheatgrass","cheatgrass; PREEMERGENCE, Rate 50 g/ha",0
same,"Plant response rating (0 to 10 scale), Cheatgrass","cheatgrass; PREEMERGENCE, Rate 200 g/ha",4
same,"Plant response rating, Cheatgrass","cheatgrass; Rate 200 g/ha, POSTEMERGENCE",4
same,"Plant response rating, Barnyardgrass","barnyardgrass; POSTEMERGENCE, Rate 50 g/ha",8
same,"Plant response rating, Barnyardgrass","barnyardgrass; PREEMERGENCE, Rate 50 g/ha",0
same,"Plant response rating (0 to 10 scale), Barnyardgrass","barnyardgrass; PREEMERGENCE, Rate 200 g/ha",0
same,"Plant response rating, Barnyardgrass","barnyardgrass; Rate 200 g/ha, POSTEMERGENCE",7
same,"Plant response rating, Wild oat","wild oat; POSTEMERGENCE, Rate 50 g/ha",2
same,"Plant response rating, Wild oat","wild oat; PREEMERGENCE, Rate 50 g/ha",0
same,"Plant response rating (0 to 10 scale), Wild oat","wild oat; PREEMERGENCE, Rate 200 g/ha",3
same,"Plant response rating, Wild oat","wild oat; Rate 200 g/ha, POSTEMERGENCE",3
same,"Plant response rating, Sugar beet","sugar beet; POSTEMERGENCE, Rate 50 g/ha",10
same,"Plant response rating, Sugar beet","sugar beet; PREEMERGENCE, Rate 50 g/ha",0
same,"Plant response rating (0 to 10 scale), Sugar beet","sugar beet; PREEMERGENCE, Rate 200 g/ha",9
same,"Plant response rating, Sugar beet","sugar beet; Rate 200 g/ha, POSTEMERGENCE",10
same,"Plant response rating, Giant foxtail","giant foxtail; POSTEMERGENCE, Rate 50 g/ha",4
same,"Plant response rating, Giant foxtail","giant foxtail; PREEMERGENCE, Rate 50 g/ha",0
same,"Plant response rating (0 to 10 scale), Giant foxtail","giant foxtail; PREEMERGENCE, Rate 200 g/ha",2
same,"Plant response rating, Giant foxtail","giant foxtail; Rate 200 g/ha, POSTEMERGENCE",8
same,"Plant response rating, Rice","rice; POSTEMERGENCE, Rate 50 g/ha",6
same,"Plant response rating, Rice","rice; PREEMERGENCE, Rate 50 g/ha",0
same,"Plant response rating (0 to 10 scale), Rice","rice; PREEMERGENCE, Rate 200 g/ha",0
same,"Plant response rating, Rice","rice; Rate 200 g/ha, POSTEMERGENCE",6
same,"Plant response rating, Sorghum","sorghum; POSTEMERGENCE, Rate 50 g/ha",3
same,"Plant response rating, Sorghum","sorghum; PREEMERGENCE, Rate 50 g/ha",0
same,"Plant response rating (0 to 10 scale), Sorghum","sorghum; PREEMERGENCE, Rate 200 g/ha",0
same,"Plant response rating, Sorghum","sorghum; Rate 200 g/ha, POSTEMERGENCE",3
same,"Plant response rating, Wheat","wheat; POSTEMERGENCE, Rate 50 g/ha",3
same,"Plant response rating, Wheat","wheat; PREEMERGENCE, Rate 50 g/ha",0
same,"Plant response rating (0 to 10 scale), Wheat","wheat; PREEMERGENCE, Rate 200 g/ha",2
same,"Plant response rating, Wheat","wheat; Rate 200 g/ha, POSTEMERGENCE",4
same,"Plant response rating, Wild buckwheat","wild buckwheat; POSTEMERGENCE, Rate 50 g/ha",10
same,"Plant response rating, Wild buckwheat","wild buckwheat; PREEMERGENCE, Rate 50 g/ha",0
same,"Plant response rating (0 to 10 scale), Wild buckwheat","wild buckwheat; PREEMERGENCE, Rate 200 g/ha",10
same,"Plant response rating, Wild buckwheat","wild buckwheat; Rate 200 g/ha, POSTEMERGENCE",10
same,"Plant response rating, Chickweed","chickweed; POSTEMERGENCE, Rate 50 g/ha",2
same,"Plant response rating, Chickweed","chickweed; PREEMERGENCE, Rate 50 g/ha",0
same,"Plant response rating (0 to 10 scale), Chickweed","chickweed; PREEMERGENCE, Rate 200 g/ha",9
same,"Plant response rating, Chickweed","chickweed; Rate 200 g/ha, POSTEMERGENCE",3
same,"Plant response rating, Soybean","soybean; POSTEMERGENCE, Rate 50 g/ha",6
same,"Plant response rating, Soybean","soybean; PREEMERGENCE, Rate 50 g/ha",0
same,"Plant response rating (0 to 10 scale), Soybean","soybean; PREEMERGENCE, Rate 200 g/ha",0
same,"Plant response rating, Soybean","soybean; Rate 200 g/ha, POSTEMERGENCE",7
same,"Plant response rating, Nutsedge","purple nutsedge; PREEMERGENCE, Rate 50 g/ha",0
same,"Plant response rating (0 to 10 scale), Nutsedge","purple nutsedge; PREEMERGENCE, Rate 200 g/ha",0
same,"Plant response rating, Nutsedge","purple nutsedge; Rate 200 g/ha, POSTEMERGENCE",3
same,"Plant response rating, Crabgrass","crabgrass; POSTEMERGENCE, Rate 50 g/ha",4
same,"Plant response rating, Crabgrass","crabgrass; PREEMERGENCE, Rate 50 g/ha",0
same,"Plant response rating (0 to 10 scale), Crabgrass","crabgrass; PREEMERGENCE, Rate 200 g/ha",0
same,"Plant response rating, Crabgrass","crabgrass; Rate 200 g/ha, POSTEMERGENCE",6
same,"Plant response rating, Rape","rape; POSTEMERGENCE, Rate 50 g/ha",3
same,"Plant response rating, Rape","rape; PREEMERGENCE, Rate 50 g/ha",0
same,"Plant response rating (0 to 10 scale), Rape","rape; PREEMERGENCE, Rate 200 g/ha",7
same,"Plant response rating, Rape","rape; Rate 200 g/ha, POSTEMERGENCE",7
same,"Plant response rating, Bedstraw","bedstraw; POSTEMERGENCE, Rate 50 g/ha",9
same,"Plant response rating, Bedstraw","bedstraw; PREEMERGENCE, Rate 50 g/ha",0
same,"Plant response rating (0 to 10 scale), Bedstraw","bedstraw; PREEMERGENCE, Rate 200 g/ha",9
same,"Plant response rating, Bedstraw","bedstraw; Rate 200 g/ha, POSTEMERGENCE",10
same,"Plant response rating, Cocklebur","cocklebur; POSTEMERGENCE, Rate 50 g/ha",8
same,"Plant response rating, Cocklebur","cocklebur; PREEMERGENCE, Rate 50 g/ha",0
same,"Plant response rating (0 to 10 scale), Cocklebur","cocklebur; PREEMERGENCE, Rate 200 g/ha",0
same,"Plant response rating, Cocklebur","cocklebur; Rate 200 g/ha, POSTEMERGENCE",10
same,"Plant response rating, Lambsquarter","lambsquarters; POSTEMERGENCE, Rate 50 g/ha",10
same,"Plant response rating, Lambsquarter","lambsquarters; PREEMERGENCE, Rate 50 g/ha",9
same,"Plant response rating (0 to 10 scale), Lambsquarter","lambsquarters; PREEMERGENCE, Rate 200 g/ha",10
same,"Plant response rating, Lambsquarter","lambsquarters; Rate 200 g/ha, POSTEMERGENCE",10
same,"Plant response rating, Blackgrass","blackgrass; POSTEMERGENCE, Rate 50 g/ha",2
same,"Plant response rating, Blackgrass","blackgrass; PREEMERGENCE, Rate 50 g/ha",0
same,"Plant response rating (0 to 10 scale), Blackgrass","blackgrass; PREEMERGENCE, Rate 200 g/ha",3
same,"Plant response rating, Blackgrass","blackgrass; Rate 200 g/ha, POSTEMERGENCE",4

# From patent US6358885B1, “Substituted phenylheterocyclic herbicides” (Mississippi State University, priority 1992, dated 2002)
